We go through four molecules from patent publication US11691986B2, “PTEFB inhibiting macrocyclic compounds” (Bayer Aktiengesellschaft, priority 2017, dated 2023).

Assay [1] addresses T1, human PTEFb (CDK9/Cyclin T1) (Homo sapiens, UniProt P50750).
T1 construct: purchased ProQinase, Freiburg, Germany
Kind of assay: Surface Plasmon Resonance PTEFb. It counts as binding. Conditions: SPR, 37° C.; for residence time: 1/koff, read-out: Target residence time; for residence time / koff: * = arithmetic mean; for Kd: * = arithmetic mean of more than one value, read-out: Equilibrium dissociation constant KD; for koff: < = below what is resolvable, read-out: Dissociation rate constant koff. From the text:
8. Surface Plasmon Resonance PTEFb
The ability of the compounds according to the invention to bind human PTEFb may be determined using surface plasmon resonance (SPR). KD values and koff values may be measured using a Biacore® T200 instrument (GE Healthcare, Uppsala, Sweden).
For SPR measurements, recombinant human PTEFb (CDK9/Cyclin T1 recombinant human active protein kinase purchased from ProQinase, Freiburg, Germany) is immobilized using standard amine coupling (Johnsson B et al, Anal Biochem. 1991 Nov. 1; 198(2):268-77). Briefly, carboxymethylated dextran biosensor chips (CM7, GE Healthcare) are activated with N-ethyl-N′-(3-dimethylaminopropyl)-carbodiimide hydrochloride (EDC) and N-hydroxysuccinimide (NHS) according to the supplier's instructions. Human PTEFb is diluted in 1×HBS-EP+(GE Healthcare) and injected on the activated chip surface. Subsequently, a 1:1 solution of 1 M ethanolamine-HCl (GE Healthcare) and 1×HBS-EP is injected to block unreacted groups, resulting in approximately 4000 response units (RU) of immobilized protein. A reference surface is generated by treatment with NHS-EDC and ethanolamine-HCl. Compounds are dissolved in 100% dimethylsulfoxide (DMSO, Sigma-Aldrich, Germany) to a concentration of 10 mM and subsequently diluted in running buffer (1×HBS-EP+pH 7.4 [generated from HBS-EP+Buffer 10×(GE Healthcare): 0.1 M HEPES, 1.5 M NaCl, 30 mM EDTA and 0.5% v/v Surfactant P20], 1% v/v DMSO). For kinetic measurements, serial dilutions of compound (0.078 nM up to 25 nM) are injected over immobilized protein. Binding kinetics is measured at 37° C. with a flow rate of 100 μl/min in running buffer. Compound concentrations are injected for 70 s followed by a dissociation time of 1100 s. The resulting sensorgrams are double-referenced against the reference surface as well as against blank injections.
The double-referenced sensorgrams are fit to a simple reversible Langmuir 1:1 reaction mechanism as implemented in the Biacore® T200 evaluation software 2.0 (GE Healthcare). In cases were full compound dissociation has not occurred at the end of the dissociation phase, the Rmax parameter (response at saturation) is fit as local variable. In all other cases, Rmax is fit as global variable.

Another assay deals with HeLa cells. The assay can be described thus: Proliferation assay, HeLa (crystal violet). It is filed as cell-based. Conditions: Homo sapiens, 96 h, 4 days, read-out: Inhibition of HeLa cell proliferation IC50. How it is done:
(§1) Cultivated tumour cells (HeLa, human cervical tumour cells, ATCC CCL-2; NCI-H460, human non-small cell lung carcinoma cells, ATCC HTB-177; DU 145, hormone-independent human prostate carcinoma cells, ATCC HTB-81; HeLa-MaTu-ADR, multidrug-resistant human cervical carcinoma cells, EPO-GmbH Berlin; Caco-2, human colorectal carcinoma cells, ATCC HTB-37; B16F10, mouse melanoma cells, ATCC CRL-6475) were plated at a density of 5,000 cells/well (DU145, HeLa-MaTu-ADR), 3,000 cells/well (NCI-H460, HeLa), 1,500 cells/well (Caco-2), or 1,000 cells/well (B16F10) in a 96-well multititer plate in 200 μL of their respective growth medium supplemented 10% fetal calf serum. After 24 hours, the cells of one plate (zero-point plate) were stained with crystal violet (see below), while the medium of the other plates was supplemented with the test substances in various concentrations (0 μM, as well as in the range of 0.0001-10 μM; the final concentration of the solvent dimethyl sulfoxide was adjusted to 0.1%) using a Hewlett-Packard HP D300 Digital Dispenser. The cells were incubated for 4 days in the presence of test substances. Cell proliferation was determined by staining the cells with crystal violet: the cells were fixed by adding 20 μl/measuring point of an 11% glutaric aldehyde solution for 15 minutes at room temperature. After three washing cycles of the fixed cells with water, the plates were dried at room temperature. The cells were stained by adding 100 μl/measuring point of a 0.1% crystal violet solution (pH 3.0). After three washing cycles of the stained cells with water, the plates were dried at room temperature. The dye was dissolved by adding 100 μl/measuring point of a 10% acetic acid solution. The extinction was determined by photometry at a wavelength of 595 nm. The change of cell number, in percent, was calculated by normalization of the measured values to the extinction values of the zero-point plate (=0%) and the extinction of the untreated (0 Wm) cells (=100%). The IC50 values (inhibitory concentration at 50% of maximal effect) were determined by means of a 4 parameter fit.

The next assay concerns NCI-H460 cells. Kind of assay: Proliferation assay, NCI-H460 (crystal violet). The settings on record: Homo sapiens, 96 h; NCI-H460, 4 days; read-out: Inhibition of NCI-H460 cell proliferation IC50. It is filed as cell-based. As to the method: as §1
For a further assay, the system named is HeLa-MaTu-ADR cells. The assay can be described thus: Proliferation assay, HeLa-MaTu-ADR (crystal violet). It counts as cell-based. The settings on record: Homo sapiens, 96 h, 4 days, read-out: Inhibition of HeLa-MaTu-ADR cell proliferation IC50. How it is done: as §1

T1 sequence (P50750 whole entry): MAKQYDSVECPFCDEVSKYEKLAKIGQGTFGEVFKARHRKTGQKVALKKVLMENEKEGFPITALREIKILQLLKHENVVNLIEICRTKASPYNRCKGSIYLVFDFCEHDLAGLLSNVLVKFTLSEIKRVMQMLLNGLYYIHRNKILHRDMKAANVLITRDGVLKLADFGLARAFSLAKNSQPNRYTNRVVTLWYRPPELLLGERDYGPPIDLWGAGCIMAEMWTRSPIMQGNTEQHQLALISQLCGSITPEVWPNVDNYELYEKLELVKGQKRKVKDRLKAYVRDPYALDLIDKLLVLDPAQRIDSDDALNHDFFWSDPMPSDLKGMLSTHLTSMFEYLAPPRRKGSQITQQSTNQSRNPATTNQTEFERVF
T1 sequence (O60563 whole entry partner): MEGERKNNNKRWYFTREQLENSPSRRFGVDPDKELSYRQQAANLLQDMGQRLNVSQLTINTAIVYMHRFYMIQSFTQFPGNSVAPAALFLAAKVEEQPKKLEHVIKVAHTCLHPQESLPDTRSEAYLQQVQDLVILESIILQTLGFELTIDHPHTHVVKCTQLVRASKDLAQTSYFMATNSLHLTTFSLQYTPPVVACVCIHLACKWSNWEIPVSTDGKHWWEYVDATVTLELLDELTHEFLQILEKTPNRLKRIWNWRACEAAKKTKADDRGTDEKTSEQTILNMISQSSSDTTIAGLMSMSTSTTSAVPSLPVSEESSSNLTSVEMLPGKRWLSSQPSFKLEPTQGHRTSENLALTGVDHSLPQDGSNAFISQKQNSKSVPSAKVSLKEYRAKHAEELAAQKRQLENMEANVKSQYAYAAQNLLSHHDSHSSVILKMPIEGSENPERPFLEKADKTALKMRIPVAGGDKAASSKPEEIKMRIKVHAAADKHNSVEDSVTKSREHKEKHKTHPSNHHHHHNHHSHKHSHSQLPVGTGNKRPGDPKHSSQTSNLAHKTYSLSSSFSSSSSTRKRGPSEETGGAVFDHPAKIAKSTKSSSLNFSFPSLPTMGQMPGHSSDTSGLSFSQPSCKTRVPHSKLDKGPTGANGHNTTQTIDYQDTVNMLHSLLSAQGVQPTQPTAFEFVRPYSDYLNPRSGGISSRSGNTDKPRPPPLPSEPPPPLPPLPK

Regarding `CC1CCCNc2cc(ccc2F)-c2nc(ncc2F)Nc2cc(CS(C)(=O)=O)cc(c2)O1` (racemic) [Example 8, (rac)-3,20-difluoro-14-methyl-10-[(methylsulfonyl)methyl]-13-oxa-5,7,18,25-tetraazatetracyclo[17.3.1.1^2,6.1^8,12]pentacosa-1(23),2(25),3,5,8(24),9,11,19,21-nonaene], in assay [1], the residence time (as a rule, the mean lifetime of the complex, commonly the reciprocal of the off-rate) was 33 min; the dissociation constant Kd (usually the concentration at which binding is half-saturated) turned out to be 0.28 nM; the koff (in general, the rate constant with which the complex falls apart) was 0.0005 s⁻¹.
Turning to `CS(=N)(=O)Cc1cc2cc(c1)OCCCNc1cc(ccc1F)-c1nc(ncc1F)N2` (racemic) [Example 3, (rac)-3,19-difluoro-10-[(S-methylsulfonimidoyl)methyl]-13-oxa-5,7,17,24-tetraazatetracyclo[16.3.1.1^2,6.1^8,12]tetracosa-1(22),2(24),3,5,8(23),9,11,18,20-nonaene], the IC50 with HeLa cells was 15 nM; in the assay with NCI-H460 cells, 25 nM; in the assay with HeLa-MaTu-ADR cells, 23 nM. The residence time in assay [1] worked out at 13 min. Moreover, the Kd in assay [1] was determined as 0.38 nM. Moreover, the off-rate constant (koff) in assay [1] was 0.0012 s⁻¹.
In the case of `CC(C)(C)OC(=O)N=S(C)(=O)Cc1cc2cc(c1)OCCCCNc1cc(ccc1F)-c1nc(ncc1F)N2` (racemic) [Example 1, (rac)-tert-butyl [{[3,20-difluoro-13-oxa-5,7,18,25-tetraazatetracyclo[17.3.1.1^2,6.1^8,12]pentacosa-1(23),2(25),3,5,8(24),9,11,19,21-nonaen-10-yl]methyl}(methyl)oxido-λ^6-sulfanylidene]carbamate], the IC50 in the assay with HeLa cells was 40 nM; in the assay with NCI-H460 cells, 33 nM; in the assay on HeLa-MaTu-ADR cells, 46 nM.
`CS(=N)(=O)Cc1cc2cc(c1)OCCCCNc1cc(ccc1F)-c1nc(ncc1F)N2` (racemic) [Example 2, (rac)-3,20-difluoro-10-[(S-methylsulfonimidoyl)methyl]-13-oxa-5,7,18,25-tetraazatetracyclo[17.3.1.1^2,6.1^8,12]pentacosa-1(23),2(25),3,5,8(24),9,11,19,21-nonaene]: the IC50 in the assay with HeLa cells stood at 4.4 nM; in the assay on NCI-H460 cells, 9.2 nM; with HeLa-MaTu-ADR cells, 5.3 nM. Further, the residence time in assay [1] is above 208 min. For the same molecule, the equilibrium dissociation constant (Kd) in assay [1] stood at 0.074 nM. The koff in assay [1] is below 8e-05 s⁻¹.
